The target of one experiment is T1, D(4) dopamine receptor (Homo sapiens, UniProt P21917).
T1 sequence (P21917 whole entry): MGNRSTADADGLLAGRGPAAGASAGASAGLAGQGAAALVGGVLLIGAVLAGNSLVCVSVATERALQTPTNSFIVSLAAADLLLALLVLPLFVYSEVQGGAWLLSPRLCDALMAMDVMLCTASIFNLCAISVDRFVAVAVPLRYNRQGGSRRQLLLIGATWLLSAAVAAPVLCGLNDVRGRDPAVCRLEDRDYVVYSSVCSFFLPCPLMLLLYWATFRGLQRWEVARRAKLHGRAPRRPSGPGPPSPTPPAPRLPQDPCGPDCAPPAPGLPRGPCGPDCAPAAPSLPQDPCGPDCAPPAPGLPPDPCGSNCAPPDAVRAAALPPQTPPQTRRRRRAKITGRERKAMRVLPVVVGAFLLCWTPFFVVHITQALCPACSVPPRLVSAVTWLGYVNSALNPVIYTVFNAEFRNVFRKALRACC
Description: biochemical.

A further experiment concerns the target D(3) dopamine receptor (Homo sapiens, UniProt P35462). Briefly: biochemical.

As usually defined, the Ki is the dissociation constant of the complex between target and ligand, obtained from inhibition or displacement. Low values mean a stronger hold on the target, high ones a looser hold on the target.

Some results are limits rather than exact numbers.

Chain of D(3) dopamine receptor (P35462 whole entry): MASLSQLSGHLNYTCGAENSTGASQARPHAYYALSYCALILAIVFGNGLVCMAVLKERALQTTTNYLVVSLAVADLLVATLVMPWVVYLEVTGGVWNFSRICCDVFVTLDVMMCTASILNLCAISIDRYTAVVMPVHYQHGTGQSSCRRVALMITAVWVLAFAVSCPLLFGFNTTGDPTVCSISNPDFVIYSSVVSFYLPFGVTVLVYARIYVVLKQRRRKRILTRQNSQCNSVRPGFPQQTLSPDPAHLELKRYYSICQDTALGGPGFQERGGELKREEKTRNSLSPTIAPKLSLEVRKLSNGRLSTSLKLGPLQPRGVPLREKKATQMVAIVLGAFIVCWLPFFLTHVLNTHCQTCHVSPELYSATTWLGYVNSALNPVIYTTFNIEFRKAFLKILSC
Description for D(3) dopamine receptor: Displacement of [3H]spiperone from human Dopamine receptor D3 expressed in CHO cells
Description for D(4) dopamine receptor: Displacement of [3H]spiperone from human Dopamine receptor D4 expressed in HEK293 cells

For the molecule `Clc1ccc(-c2cc(C3CCN(CCc4ccccc4)CC3)[nH]n2)cc1`, the Ki at D(4) dopamine receptor was 5.5 nM; on D(3) dopamine receptor it was above 4000 nM.

On to `Cc1c(-c2ccc(Cl)cc2)noc1C1CCN(CCc2ccccc2)CC1`, for which the Ki on D(4) dopamine receptor worked out at 2.5 nM; on D(3) dopamine receptor, 480 nM.

Regarding `Clc1ccc(CN2CCC(c3cc(-c4ccc(Cl)cc4)no3)CC2)cc1`, the inhibitory constant (Ki) worked out at 3.6 nM on D(4) dopamine receptor and 81 nM on D(3) dopamine receptor.

With `Clc1ccc(CN2CCC(c3cc(-c4ccc(Cl)cc4)[nH]n3)CC2)cc1`, the Ki was 61 nM on D(4) dopamine receptor and 820 nM on D(3) dopamine receptor.

Consider `Cc1c(C2CCN(CCc3ccccc3)CC2)n[nH]c1-c1ccc(Cl)cc1`, for which the Ki stood at 1.2 nM on D(4) dopamine receptor and 1200 nM on D(3) dopamine receptor.

With `Clc1ccc(CN2CCC(c3cc(-c4ccc(Cl)cc4)on3)CC2)cc1`, the results for the Ki at D(4) dopamine receptor and on D(3) dopamine receptor were 44 nM and 430 nM, respectively.

Values taken from ChEMBL document CHEMBL1129307, “5-(4-Chlorophenyl)-4-methyl-3-(1-(2-phenylethyl)piperidin-4-yl)isoxazole: a potent, selective antagonist at human cloned dopamine D4 receptors” (J Med Chem, 1996).
